Test system: YAP/TAZ-TEAD transcription
Test: Reporter gene assay for measuring the inhibition of YAP/TAZ-TEAD transcription (TEAD-responsive element luciferase reporter in Hek293T cells)
Format: cell-based
Conditions: Homo sapiens, HEK-293T, 24 hours incubation
Procedure: Hek293T cells are cultured in DMEM supplemented with 10% fetal bovine serum, Sodium pyruvate, Sodium bicarbonate, L-glutamine. The cells are harvested and transiently transfected with TEAD-responsive element luciferase reporter. Transfected cells are plated in 384-wells plate containing pre-diluted compounds. After 24 hours incubation at 37° C./5% CO2, assay plates were cooled down to RT and levelled to an equal volume per well, prior to the addition of 25 uL luciferase substrate SteadyLite (Perkin Elmer)/well. The plate was shaken for 10 min at 600 rpm, centrifuged for 1 min at 500 rpm and measured with an Envision reader (PerkinElmer). The amount of relative light units produced by the TEAD reporter is used to calculated percent of inhibition.
The percent of reporter inhibition was calculated in the presence of a positive control inhibitor (100% inhibition) versus a condition with the presence of the vehicle basal activity of the reporter (0% inhibition). The ability of a test compound to inhibit this activity was determined as: Percentage inhibition=[1−((RLU determined in the presence of vehicle−RLU determined for sample with test compound present) divided by (RLU determined in the presence of vehicle−RLU determined for sample with positive control inhibitor))]*100
The activities of the example compounds tested are depicted in the table below. The activity ranges A, B and C refer to EC50 values in the reporter gene assay as described as follows: “A”: EC50<1 μM; “B”: 1 μM s EC50≤20 μM and “C”: EC50>20 μM, NT=not tested.

Row | SMILES | EC50 [nM]
1 | C=CC(=O)NCc1ccc(-c2ccc(F)cc2)cc1-c1ccnn1C(F)F [compound 171, N-((3-(1-(difluoromethyl)-1H-pyrazol-5-yl)-4′-fluoro-[1,1′-biphenyl]-4-yl)methyl)acrylamide] | 1000 to 20000
2 | c1ccc(-c2cccc(-c3nnn(Cc4cccnc4)n3)c2)cc1 [compound 047, 3-((5-([1,1′-biphenyl]-3-yl)-2H-tetrazol-2-yl)methyl)pyridine] | 1000 to 20000
3 | CNS(=O)(=O)CCC(=O)Nc1ccc(-c2ccccc2)cc1-c1ccn(Cc2cccnc2)n1 [compound 079, 3-(N-methylsulfamoyl)-N-(3-(1-(pyridin-3-ylmethyl)-1H-pyrazol-3-yl)-[1,1′-biphenyl]-4-yl)propanamide] | 1000 to 20000
4 | C=CC(=O)NCc1cc(=O)n(-c2ccc(F)cc2)cc1-c1ccn(C)n1 [Cpd. No. 235, N-((1-(4-fluorophenyl)-5-(1-methyl-1H-pyrazol-3-yl)-2-oxo-1,2-dihydropyridin-4-yl)methyl)acrylamide] | > 20000
5 | CN1CCC(Cn2ccc(-c3cccc(-c4ccccc4)c3)n2)CC1 [compound 032, 4-((3-([1,1′-biphenyl]-3-yl)-1H-pyrazol-1-yl)methyl)-1-methylpiperidine] | 1000 to 20000
6 | C=Cc1cc(Cn2ccc(-c3cccc(-c4ccccc4)c3)n2)ccn1 [compound 035, 4-((3-([1,1′-biphenyl]-3-yl)-1H-pyrazol-1-yl)methyl)-2-vinylpyridine] | 1000 to 20000
7 | C=CC(=O)NCc1cnc(-c2ccc(F)cc2)cc1-c1cn(C(F)F)nn1 [Cpd. No. 229, N-((4-(1-(difluoromethyl)-1H-1,2,3-triazol-4-yl)-6-(4-fluorophenyl)pyridin-3-yl)methyl)acrylamide] | < 1000
8 | C=CC(=O)NCc1ccc(-c2ccc(Cl)cc2)cc1-c1ccn(C2CC2)n1 [compound 158, N-((4′-chloro-3-(1-cyclopropyl-1H-pyrazol-3-yl)-[1,1′-biphenyl]-4-yl)methyl)acrylamide] | < 1000
9 | CNS(=O)(=O)CCNc1ccc(-c2ccccc2)cc1-c1ccn(C)n1 [compound 056, N-methyl-2-((3-(1-methyl-1H-pyrazol-3-yl)-[1,1′-biphenyl]-4-yl)amino)ethane-1-sulfonamide] | < 1000
10 | c1ccc(-c2cccc(-c3ccn(CCc4cccnc4)n3)c2)cc1 [compound 023] | 1000 to 20000
11 | C=CC(=O)NCc1ccc(-c2ccc(F)cc2)cc1-n1ccnn1 [compound 191, N-((4′-fluoro-3-(1H-1,2,3-triazol-1-yl)-[1,1′-biphenyl]-4-yl)methyl)acrylamide] | < 1000
12 | C=CC(=O)NC1CC1c1ccc(-c2ccccc2)cc1-c1ccn(C)n1 (stereo not shown) [Cpd. No. 257, N-(2-(3-(1-methyl-1H-pyrazol-3-yl)-[1,1′-biphenyl]-4-yl)cyclopropyl)acrylamide] | < 1000
13 | C=CC(=O)NCc1cnc(-c2ccc(F)cc2)cc1-c1cnn(C(F)F)n1 [compound 230, N-((4-(2-(difluoromethyl)-2H-1,2,3-triazol-4-yl)-6-(4-fluorophenyl)pyridin-3-yl)methyl)acrylamide] | < 1000
14 | C=CC(=O)NCc1ccc(-c2ccc(F)cc2)cc1-c1ccn(CC(F)(F)F)n1 [compound 160, N-((4′-fluoro-3-(1-(2,2,2-trifluoroethyl)-1H-pyrazol-3-yl)-[1,1′-biphenyl]-4-yl)methyl)acrylamide] | < 1000
15 | C=CC(=O)NCc1cnc(-c2ccc(Cl)cc2)cc1-c1ccn(C(F)F)n1 [compound 210, N-((6-(4-chlorophenyl)-4-(1-(difluoromethyl)-1H-pyrazol-3-yl)pyridin-3-yl)methyl)acrylamide] | < 1000
16 | O=C(O)c1ccncc1Cn1ccc(-c2cccc(-c3ccccc3)c2)n1 [compound 042, 3-((3-([1,1′-biphenyl]-3-yl)-1H-pyrazol-1-yl)methyl)isonicotinic acid] | > 20000
17 | O=C(O)c1cncc(Cn2ccc(-c3cccc(-c4ccccc4)c3)n2)c1 [compound 040, 5-((3-([1,1′-biphenyl]-3-yl)-1H-pyrazol-1-yl)methyl)nicotinic acid] | > 20000
18 | Fc1cccc(Cn2ccc(-c3cccc(-c4ccccc4)c3)n2)c1 [compound 018, 3-([1,1′-biphenyl]-3-yl)-1-(3-fluorobenzyl)-1H-pyrazole] | 1000 to 20000
19 | C=CC(=O)NCc1ccc(-c2ccc(F)cc2)cc1-c1ccn(CC(C)C)n1 [compound 152, N-((4′-fluoro-3-(1-isobutyl-1H-pyrazol-3-yl)-[1,1′-biphenyl]-4-yl)methyl)acrylamide] | < 1000

Row | SMILES | EC50 [nM]
20 | C=CC(=O)NCc1ccc(-c2ccc(F)cc2)nc1-c1ccnn1C1CC1 [compound 197, N-((2-(1-cyclopropyl-1H-pyrazol-5-yl)-6-(4-fluorophenyl)pyridin-3-yl)methyl)acrylamide] | 1000 to 20000
21 | c1ccc(-c2cccc(-c3ccn(CC4CCNCC4)n3)c2)cc1 [compound 030, 4-((3-([1,1′-biphenyl]-3-yl)-1H-pyrazol-1-yl)methyl)piperidine] | 1000 to 20000
22 | C=CC(=O)NCc1cc(-c2ccccc2)cc(-c2ccn(Cc3cccnc3)n2)c1 [compound 139, N-((5-(1-(pyridin-3-ylmethyl)-1H-pyrazol-3-yl)-[1,1′-biphenyl]-3-yl)methyl)acrylamide] | < 1000
23 | CN(C)S(=O)(=O)CCNc1ccc(-c2ccccc2)cc1-c1ccn(Cc2cccnc2)n1 [compound 053, N,N-dimethyl-2-((3-(1-(pyridin-3-ylmethyl)-1H-pyrazol-3-yl)-[1,1′-biphenyl]-4-yl)amino)ethane-1-sulfonamide] | < 1000
24 | CNS(=O)(=O)CCNc1ccc(-c2cccc(F)c2F)cc1-c1ccn(C)n1 [compound 125, 2-((2′,3′-difluoro-3-(1-methyl-1H-pyrazol-3-yl)-[1,1′-biphenyl]-4-yl)amino)-N-methylethane-1-sulfonamide] | < 1000
25 | C=CC(=O)NCc1ccc(-c2ccc(F)cc2)nc1-c1ccn(C2CC2)n1 [compound 196, N-((2-(1-cyclopropyl-1H-pyrazol-3-yl)-6-(4-fluorophenyl)pyridin-3-yl)methyl)acrylamide] | < 1000
26 | CCC(=O)NCc1cnc(-c2cccc(C(F)(F)F)c2)cc1-c1ccn(C(F)F)n1 [compound 216, N-((4-(1-(difluoromethyl)-1H-pyrazol-3-yl)-6-(3-(trifluoromethyl)phenyl)pyridin-3-yl)methyl)propionamide] | > 20000
27 | C=CC(=O)NCc1c(F)cc(-c2ccc(C(F)(F)F)cc2)cc1-c1ccn(C)n1 [compound 192, N-((3-fluoro-5-(1-methyl-1H-pyrazol-3-yl)-4′-(trifluoromethyl)-[1,1′-biphenyl]-4-yl)methyl)acrylamide] | < 1000
28 | C=CC(=O)NCc1ccc(-c2ccc(C(F)(F)F)cn2)cc1-c1ccn(C)n1 [compound 147, N-(2-(1-methyl-1H-pyrazol-3-yl)-4-(5-(trifluoromethyl)pyridin-2-yl)benzyl)acrylamide] | < 1000
29 | CNS(=O)(=O)CCNc1ccc(-c2ccc(S(F)(F)(F)(F)F)cc2)cc1-c1ccn(Cc2cccnc2)n1 [compound 100, 2-((4′-(2,2-difluoro-2-methyl-2l6-trifluoran-2-yl)-3-(1-(pyridin-3-ylmethyl)-1H-pyrazol-3-yl)-[1,1′-biphenyl]-4-yl)amino)-N-methylethane-1-sulfonamide] | < 1000
30 | CNC(=O)CNc1cc(-c2ccccc2)cc(-c2ccn(Cc3cccnc3)n2)c1 [compound 076, N-methyl-2-((5-(1-(pyridin-3-ylmethyl)-1H-pyrazol-3-yl)-[1,1′-biphenyl]-3-yl)amino)acetamide] | 1000 to 20000
31 | C=CC(=O)NCc1ccc(-c2ccc(F)cc2)cc1-c1nnnn1C [compound 189, N-((4′-fluoro-3-(1-methyl-1H-tetrazol-5-yl)-[1,1′-biphenyl]-4-yl)methyl)acrylamide] | 1000 to 20000
32 | C=CC(=O)Nc1ccc(-c2ccccc2)cc1-c1ccn(Cc2cccnc2)n1 [compound 080, N-(3-(1-(pyridin-3-ylmethyl)-1H-pyrazol-3-yl)-[1,1′-biphenyl]-4-yl)acrylamide] | 1000 to 20000
33 | O=S(=O)(F)CCNc1ccc(-c2ccccc2)cc1-c1ccn(Cc2cccnc2)n1 [compound 049, 2-((3-(1-(pyridin-3-ylmethyl)-1H-pyrazol-3-yl)-[1,1′-biphenyl]-4-yl)amino)ethane-1-sulfonyl fluoride] | 1000 to 20000
34 | CNC(=O)CCNc1cc(-c2ccccc2)cc(-c2ccn(Cc3cccnc3)n2)c1 [compound 062, N-methyl-3-((5-(1-(pyridin-3-ylmethyl)-1H-pyrazol-3-yl)-[1,1′-biphenyl]-3-yl)amino)propanamide] | 1000 to 20000
35 | CNC(=O)CCNc1ccc(-c2ccccc2)cc1-c1ccn(C)n1 [compound 064, N-methyl-3-((3-(1-methyl-1H-pyrazol-3-yl)-[1,1′-biphenyl]-4-yl)amino)propanamide] | < 1000
36 | Cn1ccc(-c2cc(-c3ccccc3)ccc2NCCS(=O)(=O)O)n1 [compound 057, 2-((3-(1-methyl-1H-pyrazol-3-yl)-[1,1′-biphenyl]-4-yl)amino)ethane-1-sulfonic acid] | > 20000
37 | C=CC(=O)NCc1ccc(-c2ccc(C(F)(F)F)cc2)cc1-c1cnn(C2CC2)c1 [compound 168, N-((3-(1-cyclopropyl-1H-pyrazol-4-yl)-4′-(trifluoromethyl)-[1,1′-biphenyl]-4-yl)methyl)acrylamide] | < 1000

From patent US12552772B2, “2-pyrazole anilines and related analogs for inhibiting YAP/TAZ-TEAD” (KATHOLIEKE UNIVERSITEIT LEUVEN, priority 2021, dated 2026)
